target: SIK2 (Homo sapiens, UniProt Q9H0K1); assay: SIK2 Enzymatic Assay High Version 2 (High ATP); format: biochemical; conditions: not given
Procedure, shortened: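 At room temperature, enzyme (6 nM, 2× final) was preincubated with compound for 30 min, then 6 mM ATP and 400 μM HDAC5tide (both 2× final) were added for 2 h. ADP formed was measured by ADP-Glo Max (2 h reagent, 1 h detection) using luminescence.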

SIK2, sequence (Q9H0K1 whole entry, species assumed): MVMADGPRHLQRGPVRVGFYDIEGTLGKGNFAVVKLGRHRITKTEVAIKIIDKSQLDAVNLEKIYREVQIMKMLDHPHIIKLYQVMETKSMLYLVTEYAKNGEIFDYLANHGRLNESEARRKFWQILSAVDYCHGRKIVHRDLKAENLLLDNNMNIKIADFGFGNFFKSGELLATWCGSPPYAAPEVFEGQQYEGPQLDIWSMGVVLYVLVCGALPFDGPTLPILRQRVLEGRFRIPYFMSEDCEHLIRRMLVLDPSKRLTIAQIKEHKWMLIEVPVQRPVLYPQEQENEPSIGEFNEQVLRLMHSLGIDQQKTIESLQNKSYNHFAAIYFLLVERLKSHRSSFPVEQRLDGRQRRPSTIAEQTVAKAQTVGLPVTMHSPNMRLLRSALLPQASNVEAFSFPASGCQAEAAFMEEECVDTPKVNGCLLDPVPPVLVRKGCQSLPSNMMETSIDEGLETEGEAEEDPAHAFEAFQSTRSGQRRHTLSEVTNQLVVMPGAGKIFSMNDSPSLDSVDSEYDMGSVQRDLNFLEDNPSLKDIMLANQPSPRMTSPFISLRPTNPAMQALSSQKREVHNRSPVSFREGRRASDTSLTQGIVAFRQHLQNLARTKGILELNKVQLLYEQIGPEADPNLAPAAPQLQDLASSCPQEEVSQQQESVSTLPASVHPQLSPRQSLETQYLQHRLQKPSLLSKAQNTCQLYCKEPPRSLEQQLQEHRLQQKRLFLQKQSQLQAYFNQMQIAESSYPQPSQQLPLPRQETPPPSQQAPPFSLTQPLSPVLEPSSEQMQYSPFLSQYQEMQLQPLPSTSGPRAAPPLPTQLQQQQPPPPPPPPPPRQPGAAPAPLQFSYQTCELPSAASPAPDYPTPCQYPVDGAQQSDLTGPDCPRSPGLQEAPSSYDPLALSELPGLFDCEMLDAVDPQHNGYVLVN

SMILES | IC50 [µM]
Cc1cc(-c2ccn3nc(Nc4cnn(C(F)F)c4)cc3c2)c(O[C@H]2C[C@H]3COC[C@@H](C2)N3C)cn1 [Example 116, N-(1-(difluoromethyl)-1H-pyrazol-4-yl)-5-(2-methyl-5-(((1R,5S,7s)-9-methyl-3-oxa-9-azabicyclo[3.3.1]nonan-7-yl)oxy)pyridin-4-yl)pyrazolo[1,5-a]pyridin-2-amine] | < 0.000847
Cc1cc(-c2ccn3nc(Nc4ccnc(C)n4)cc3c2)c(O[C@H]2C[C@H]3COC[C@@H](C2)N3S(C)(=O)=O)cn1 [Example 630] | 1.18
Cc1cc(-c2ccn3nc(NC(=O)C4CC4)cc3c2)c(OC[C@H]2NCC2(C)C)cn1 [Example 471, N-[5-[5-[[(2S)-3,3-dimethylazetidin-2-yl]methoxy]-2-methyl-4-pyridyl]pyrazolo[1,5-a]pyridin-2-yl]cyclopropanecarboxamide] | 0.0277
Cc1cc(-c2ccn3nc(NC(=O)C4CC4)cc3c2)c(OCC2NCC23CCOCC3)cn1 (racemic) [Example 472, Racemic-N-[5-[2-methyl-5-(7-oxa-2-azaspiro[3.5]nonan-3-ylmethoxy)-4-pyridyl]pyrazolo[1,5-a]pyridin-2-yl]cyclopropanecarboxamide] | 0.0263
Cc1cc(-c2ccn3nc(NC(=O)C4CC4)cc3c2)c(O[C@H]2C[C@@](C)(N)C2)cn1 [Example 517, N-[5-[5-(3-amino-3-methyl-cyclobutoxy)-2-methyl-4-pyridyl]pyrazolo[1,5-a]pyridin-2-yl]cyclopropanecarboxamide] | 0.016
Cc1cc(-c2ccn3nc(Nc4ccc(C(=O)NCC5CCOCC5)cn4)cc3c2)c(O[C@H]2C[C@H]3COC[C@@H](C2)N3)cn1 [Example 373, 6-[[5-[2-methyl-5-[[(1R,5S,7s)-3-oxa-9-azabicyclo[3.3.1]nonan-7-yl]oxy]-4-pyridyl]pyrazolo[1,5-a]pyridin-2-yl]amino]-N-(tetrahydropyran-4-ylmethyl)pyridine-3-carboxamide] | < 0.000847
Cc1cnc(Nc2cn3cc(-c4cc(C)ncc4O[C@H]4C[C@H]5COC[C@@H](C4)N5)ncc3n2)cn1 [Example 320, 6-[2-methyl-5-[[(1S,5R)-3-oxa-9-azabicyclo[3.3.1]nonan-7-yl]oxy]-4-pyridyl]-N-(5-methylpyrazin-2-yl)imidazo[1,2-a]pyrazin-2-amine] | 0.00102
Cc1cc(-c2ccn3nc(Nc4ccc(C(N)=O)cn4)cc3c2)c(O[C@H]2C[C@H]3COC[C@@H](C2)N3)cn1 [Example 376, 6-[[5-[2-methyl-5-[[(1R,5S,7s)-3-oxa-9-azabicyclo[3.3.1]nonan-7-yl]oxy]-4-pyridyl]pyrazolo[1,5-a]pyridin-2-yl]amino]pyridine-3-carboxamide] | 0.00136
Cc1cc(-c2ccn3nc(Nc4ccc(C)nn4)cc3c2)c(O[C@@H]2[C@@H]3CO[C@H]2CN3)cn1 [Example 523, 5-[2-methyl-5-[[(1S,4S,7R)-2-oxa-5-azabicyclo[2.2.1]heptan-7-yl]oxy]-4-pyridyl]-N-(6-methylpyridazin-3-yl)pyrazolo[1,5-a]pyridin-2-amine] | 0.00462
O=C(Nc1cc2cc(-c3cc(C(F)F)ccc3O[C@H]3C[C@H]4COC[C@@H](C3)N4)ccn2n1)C1CC1 [Example 481, N-[5-[5-(difluoromethyl)-2-[[(1R,5S)-3-oxa-9-azabicyclo[3.3.1]nonan-7-yl]oxy]phenyl]pyrazolo[1,5-a]pyridin-2-yl]cyclopropanecarboxamide] | < 0.000847

same assay, conditions: enzyme 6 nM, 6 mM ATP and 400 μM HDAC5tide (each 2× final concentration); 30 minutes pre-incubation, 2 hours; ADP-Glo Max luminescence; read-out: SIK2 high ATP IC50 (μM) (Test Example 2)

SMILES | IC50 [µM]
CC#Cc1cc(-c2ccn3nc(NC(=O)C4CC4)cc3c2)c(OCC2(N)COC2)cn1 [Example 433, N-[5-[5-[(3-aminooxetan-3-yl)methoxy]-2-prop-1-ynyl-4-pyridyl]pyrazolo[1,5-a]pyridin-2-yl]cyclopropanecarboxamide] | < 0.000847
COc1cc(Nc2cc3cc(-c4cc(C)ncc4OCC(C)(C)C#N)ccn3n2)cc(OC)c1C(=O)NC1CC1 [Example 268, 4-[[5-[5-(2-cyano-2-methyl-propoxy)-2-methyl-4-pyridyl]pyrazolo[1,5-a]pyridin-2-yl]amino]-N-cyclopropyl-2,6-dimethoxy-benzamide] | 0.00138
N#Cc1ccc(OC[C@H]2CNCCO2)c(-c2ccn3nc(Nc4ccccn4)cc3c2)c1 [Example 478, 4-[[(2R)-morpholin-2-yl]methoxy]-3-[2-(2-pyridylamino)pyrazolo[1,5-a]pyridin-5-yl]benzonitrile] | < 0.000847
Cc1cc(-c2ccn3nc(Nc4cc(C)nc(C(C)(C)C)n4)cc3c2)c(OCC(C)(C)O)cn1 [Example 261, 1-[[4-[2-[(2-tert-butyl-6-methyl-pyrimidin-4-yl)amino]pyrazolo[1,5-a]pyridin-5-yl]-6-methyl-3-pyridyl]oxy]-2-methyl-propan-2-ol] | 0.0239
Cc1cc(-c2ccn3nc(NC(=O)[C@@H]4C[C@H]4C)cc3c2)c(OC[C@]23C[C@H](CO2)N(C)C3)cn1 [Example 250, (1R,2R)-2-methyl-N-[5-[2-methyl-5-[[(1R,4R)-2-methyl-5-oxa-2-azabicyclo[2.2.1]heptan-4-yl]methoxy]-4-pyridyl]pyrazolo[1,5-a]pyridin-2-yl]cyclopropanecarboxamide] | 0.0217
COc1cc(Nc2cc3cc(-c4cc(C)ncc4O[C@H]4CC[C@H](O)CC4)ccn3n2)cc(OC)c1C(=O)NC(C)C [Example 330, 4-[[5-[5-(4-hydroxycyclohexoxy)-2-methyl-4-pyridyl]pyrazolo[1,5-a]pyridin-2-yl]amino]-N-isopropyl-2,6-dimethoxy-benzamide] | 0.028
Cc1cc(-c2ccn3nc(Nc4cc(C)nc(C)n4)cc3c2)c(OCC2(C(N)=O)CC2)cn1 [Example 313, 1-[[4-[2-[(2,6-dimethylpyrimidin-4-yl)amino]pyrazolo[1,5-a]pyridin-5-yl]-6-methyl-3-pyridyl]oxymethyl]cyclopropanecarboxamide] | 0.0138

Continued, values first:

IC50 [µM] | SMILES
0.00352 | Cc1cc(Nc2cc3cc(-c4cc(OCC(F)(F)F)ncc4OC[C@H]4OCC[C@@H]4O)ccn3n2)nc(C)n1 [Example 499, (2R,3S)-2-[[4-[2-[(2,6-dimethylpyrimidin-4-yl)amino]pyrazolo[1,5-a]pyridin-5-yl]-6-(2,2,2-trifluoroethoxy)-3-pyridyl]oxymethyl]tetrahydrofuran-3-ol]
0.00682 | Cc1cc(Nc2cc3cc(-c4cc(OC(F)F)ncc4OC[C@@H]4CNCCO4)ccn3n2)nc(C)n1 [Example 502, 5-[2-(difluoromethoxy)-5-[[(2S)-morpholin-2-yl]methoxy]-4-pyridyl]-N-(2,6-dimethylpyrimidin-4-yl)pyrazolo[1,5-a]pyridin-2-amine]
0.0171 | Cc1cc(-c2ccn3nc(Nc4cc(C)c(=O)n(C)n4)cc3c2)c(OCC(C)(C)O)cn1 [Example 209, 6-[[5-[5-(2-hydroxy-2-methyl-propoxy)-2-methyl-4-pyridyl]pyrazolo[1,5-a]pyridin-2-yl]amino]-2,4-dimethyl-pyridazin-3-one]
0.0695 | Cc1cc(-c2ccn3nc(Nc4cc(C)nc(C)n4)cc3c2)c(OC[C@H](O)C2CC2)cn1 [Example 558, (1R)-1-cyclopropyl-2-[[4-[2-[(2,6-dimethylpyrimidin-4-yl)amino]pyrazolo[1,5-a]pyridin-5-yl]-6-methyl-3-pyridyl]oxy]ethanol]
0.011 | CNC(=O)c1cc(C)nc(Nc2cc3cc(-c4cc(OC(F)F)ncc4OCC(C)(C)C#N)ccn3n2)c1 [Example 715, 2-[[5-[5-(2-cyano-2-methyl-propoxy)-2-(difluoromethoxy)-4-pyridyl]pyrazolo[1,5-a]pyridin-2-yl]amino]-N,6-dimethyl-pyridine-4-carboxamide]
0.037 | CCC1(COc2cnc(C)cc2-c2ccn3nc(Nc4cc(C)nc(C)n4)cc3c2)COC1 [Example 273, N-(2,6-dimethylpyrimidin-4-yl)-5-[5-[(3-ethyloxetan-3-yl)methoxy]-2-methyl-4-pyridyl]pyrazolo[1,5-a]pyridin-2-amine]
0.319 | COCc1cc(-c2ccn3nc(Nc4cc(C)nc(C)n4)cc3c2)c(OCC(C)(C)C#N)cn1 [Example 668, 3-[[4-[2-[(2,6-dimethylpyrimidin-4-yl)amino]pyrazolo[1,5-a]pyridin-5-yl]-6-(methoxymethyl)-3-pyridyl]oxy]-2,2-dimethyl-propanenitrile]
0.0526 | CC(C)(C#N)COc1cnc(OCC(F)(F)F)cc1-c1ccn2nc(NC(=O)C3CC3)cc2c1 [Example 669, N-[5-[5-(2-cyano-2-methyl-propoxy)-2-(2,2,2-trifluoroethoxy)-4-pyridyl]pyrazolo[1,5-a]pyridin-2-yl]cyclopropanecarboxamide]
0.00543 | Cc1cc(-c2ccn3nc(Nc4cc(C)nc(C)n4)cc3c2)c(O[C@@H]2COC(C)(C)C2)cn1 (single isomer, unassigned) [Example 533, (*S)—N-(2,6-dimethylpyrimidin-4-yl)-5-[5-(5,5-dimethyltetrahydrofuran-3-yl)oxy-2-methyl-4-pyridyl]pyrazolo[1,5-a]pyridin-2-amine]
0.0164 | Cc1cc(-c2ccn3nc(NC(=O)C4CC4)cc3c2)c(OC2CCC(=O)CC2)cn1 [Example 186, N-[5-[2-methyl-5-(4-oxocyclohexoxy)-4-pyridyl]pyrazolo[1,5-a]pyridin-2-yl]cyclopropanecarboxamide]
< 0.000847 | Cc1cc(-c2ccn3nc(Nc4cc(C)c(=O)n(C5CC5)n4)cc3c2)c(O[C@H]2CC[C@H](O)CC2)cn1 [Example 318, 2-cyclopropyl-6-[[5-[5-(4-hydroxycyclohexoxy)-2-methyl-4-pyridyl]pyrazolo[1,5-a]pyridin-2-yl]amino]-4-methyl-pyridazin-3-one]
0.165 | CO[C@H]1CN(C)C[C@@H]1COc1cnc(C)cc1-c1ccn2nc(NC(=O)C3CC3)cc2c1 (racemic) [Example 571, (3RS, 4RS)—N-[5-[5-[(4-methoxy-1-methyl-pyrrolidin-3-yl)methoxy]-2-methyl-4-pyridyl]pyrazolo[1,5-a]pyridin-2-yl]cyclopropanecarboxamide]
